Experimental findings from patent US20070191451A1, “USE OF BENZO-HETEROARYL SULFAMIDE DERIVATIVES AS NEUROPROTECTIVE AGENTS” (priority 2006, published 2007) are described below.

The test system of one test is Rat Hippocampal Cultures. Briefly: Cell Titer Glo/Cell Viability in vitro assay, rat hippocampal cultures, insult with 150 μM H2O2. As to conditions: for Cell Titer Glo/Cell Viability / Cell Titer Glo/Cell Viability, Mean: insult with 150 μM H2O2; for Cell Titer Glo/Cell Viability, Mean: mean of 3 plates, n=9. It is filed as cell-based. As to the method: (§1) The assay was run according to the procedure listed within the insert of the kit purchased from Promega (see attachment at the end of the application).
(§2) Cell cultures were prepared as follows. Dissociated hippocampal and cortical cell cultures were established from embryonic day 18 rat fetuses. The fetuses were removed via cesarean section from pregnant dams (Harlan Sprague-Dawley) anesthetized with halothane according to the AVMA Panel on Euthanasia. Pups were decapitated and the brains were removed and placed in Hank's Balanced Salt solution (1×HBSS; Gibco, Rockville, Md.). The hippocampi and cortices were dissected out and pooled according to tissue-type. Tissue was trypsinized for 15 min (1 mg/ml trypsin-HBSS; Worthington, Lakewood, N.J.), rinsed with fresh HBSS, incubated in trypsin inhibitor (1 mg/ml; Sigma, St. Louis, Mo.) for 5 min, rinsed again with fresh HBSS and then triturated in 1 ml fresh HBSS with a fire-polished glass pipette. Dissociated cells were seeded at 10,000 cells/well onto poly-D-lysine coated 96-well plates (BD BioScience, Bedford, Mass.) containing 100 ul/well Eagle's Minimal Essential Media (MEM; Gibco) supplemented with 26 mM NaHCO3 (Sigma), 40 mM glucose (Sigma), 20 mM KCl (Sigma), 1 mM sodium pyruvate (Sigma), 10% (v/v) heat-inactivated fetal bovine serum (Hyclone, Logan, Utah), and 0.001% gentamicin sulfate (Sigma) (pH 7.4). Serum-free cultures were plated and maintained in Neurobasal medium+B27 supplement (Gibco). Cells were allowed to attach for 24h in a humidified 37° C. 5% CO2 incubator before experimental treatment.
(§3) Test compounds were prepared as follows: A 10 mM stock in DMSO of each compound was diluted 1:50 in DPBS rendering a final stock of 200 μM. […] Equal amounts of vehicle or diluted compound were added to each culture well.
(§4) A 30% stock solution of hydrogen peroxide (H2O2; Sigma) was diluted with DPBS 1:100 to yield a […] stock. Five microliters of vehicle or H2O2 stock solution was added to each 100 ul culture well to yield a final concentration of 150 uM.
(§5) Note that in the data listed below, each plate was run in triplicate for a total of n=9.

The test system of test [1] is Rat Cerebral Cortical Cultures. Briefly: Cell Titer Glo/Cell Viability in vitro assay, rat cerebral cortical cultures, insult with 150 μM H2O2. It is filed as cell-based. Particulars: for Cell Titer Glo/Cell Viability, Mean: mean of 3 plates. How it is done: as §1, §2, §3, §4, §5
The mark [2] stands for this setting: compound 0.1 μM, Plate 1 (run in triplicate).
[3] abbreviates: compound 0.1 μM, Plate 2 (run in triplicate).
Setting [4] is: compound 0.1 μM, Plate 3 (run in triplicate).
Where [5] appears, read: compound 1 μM, Plate 1 (run in triplicate).
[6] abbreviates: compound 1 μM, Plate 2 (run in triplicate).
[7] abbreviates: compound 1 μM, Plate 3 (run in triplicate).
The mark [8] stands for this setting: compound 10 μM, Plate 1 (run in triplicate).
Setting [9] is: compound 10 μM, Plate 2 (run in triplicate).
The mark [10] stands for this setting: compound 10 μM, Plate 3 (run in triplicate).

The structures appear in SMILES notation.

Consider `NS(=O)(=O)NCc1csc2ccccc12` [Compound #1, N-(benzo[b]thien-3-ylmethyl)-sulfamide], for which the “protecting neurons from death and/or damage from oxidative stress or oxidative injury” value with Rat Hippocampal Cultures (conclusion in words from the data of Tables 4 and 5, H2O2 insult) was “effective at protecting neurons from death and/or damage”. In addition, the “Cell Titer Glo/Cell Viability” value was 28 with Rat Hippocampal Cultures (setting [2]); 16 with Rat Hippocampal Cultures (setting [3]); 17 with Rat Hippocampal Cultures (setting [4]); 30 in the test with Rat Hippocampal Cultures (setting [5]); 12 with Rat Hippocampal Cultures (setting [6]); 13 in the test with Rat Hippocampal Cultures (setting [7]). In addition, the entries for the “Cell Titer Glo/Cell Viability” value in the test on Rat Hippocampal Cultures (setting [8]), with Rat Hippocampal Cultures (setting [9]) and in the test with Rat Hippocampal Cultures (setting [10]) were 41, 46 and 45, respectively. The “Cell Titer Glo/Cell Viability, Mean” value is reported as 20 with Rat Hippocampal Cultures (compound 0.1 μM); 18 in the test with Rat Hippocampal Cultures (compound 1 μM); 44** in the test with Rat Hippocampal Cultures (compound 10 μM, **p < 0.01 (Kruskal-Wallis, Dunn's post-hoc)).
Consider `NS(=O)(=O)NCc1csc2ccc(F)cc12` [Compound #8, N-[(5-fluorobenzo[b]thien-3-yl)methyl]-sulfamide], for which the “Cell Titer Glo/Cell Viability” value in test [1] (setting [2]) was determined as 16; in test [1] (setting [3]) it was 43; in test [1] (setting [4]), 19; in test [1] (setting [5]), 13; in test [1] (setting [6]), 24; in test [1] (setting [7]), 12. Further, the results for the “Cell Titer Glo/Cell Viability” value in test [1] (setting [8]), in test [1] (setting [9]) and in test [1] (setting [10]) were 22, 27 and 30, respectively. For the same molecule, the “Cell Titer Glo/Cell Viability, Mean” value is recorded as 26 in test [1] (compound 0.1 μM, n=9); 16 in test [1] (compound 1 μM, n=9); 26* in test [1] (compound 10 μM, n=9, *p < 0.05 (Kruskal-Wallis, Dunn's post-hoc)).
